According to patent US10537535B2, “Histone deacetylase inhibitors” (The Regents of the University of California, priority 2015, dated 2020):

How the values were obtained:
[1] = target: T1, human HDAC1 (Homo sapiens, UniProt Q13547); test: Fluorometric HDAC activity assay, purified human HDAC1; assay type: biochemical
T1 construct: purchased Cayman Chemical 10011563
Description: The ability of diacetyl (odor 1) to inhibit human HDAC activity was investigated using in-vitro assays with a human HDAC1 kit.
In order to directly test whether diacetyl acts as an inhibitor of HDACs, in vitro acetylation assays was performed with purified human HDACs. […]
HDAC activity of class I HDACs (HDAC1, 2, 3 and 8) was measured with the fluorometric HDAC Activity Assay kit: HDAC1 (10011563, Cayman Chemical, Ann Arbor, Mich.), HDAC2, HDAC 3 and HDAC 8 (50062, 50073 and 50068, BPS Bioscience, San Diego, Calif.), according to the manufacturer's instructions.

[2] = target: T2, human HDAC2 (Homo sapiens, UniProt Q92769); test: Fluorometric HDAC activity assay, purified human HDAC2; assay type: biochemical; conditions: purified human HDAC2, n=4-5
T2 construct: purchased BPS Bioscience 50062
Description: In order to directly test whether diacetyl acts as an inhibitor of HDACs, in vitro acetylation assays was performed with purified human HDACs. In this example, β-hydroxybutyrate (a naturally-occurring HDAC inhibitor secreted by the liver, targeting zinc-dependent HDACs) was used for comparison. HDAC activity of class I HDACs (HDAC1, 2, 3 and 8) was measured with the fluorometric HDAC Activity Assay kit: HDAC1 (10011563, Cayman Chemical, Ann Arbor, Mich.), HDAC2, HDAC 3 and HDAC 8 (50062, 50073 and 50068, BPS Bioscience, San Diego, Calif.), according to the manufacturer's instructions.

[3] = test system: H3K9 acetylation in HEK293 cells; test: Western blot of histone acetylation in HEK293 nuclear extracts: H3K9; assay type: cell-based, human
Description: The effect of diacetyl on histone acetylation was further investigated using direct analysis of histone 3K9 acetylation in HEK cells. In vivo activity of diacetyl was determined by gel electrophoresis chromatography of HEK cell lysate exposed to 0 μM, 1 μM and 10 μM of diacetyl (odor 1) in whole HEK cell lysates. […] Proliferating cell nuclear antigen (PCNA; 29 kDa) is a nuclear protein included as a loading control for nuclear protein extracts.
(§1) In order to test whether diacetyl can increase acetylation of histones in vivo, human HEK293 cells were used, which offer a tractable system to prepare nuclear extracts. The cells were exposed to different doses of diacetyl for 2 or 6 hours, and monitored histone acetylation levels by Western blot analysis from nuclear extract. […] The acetylation levels of H3K14 and H4K5 were not affected (FIG. 5A).
(§2) Human embryonic kidney 293 (HEK293) cells were grown in 100 mm cell culture dishes with Dulbecco's modified Eagle's medium (DMEM) (10-013, Corning, Manassas, Va.), supplemented with 10% fetal bovine serum (FBS) (26140-079, Gibco, Carlsbad, Calif.) at 37° C. with 5% CO2. Cells that were ˜80% confluent were treated with freshly-prepared medium supplemented with diacetyl at concentrations indicated. In order to prevent diffusion of diacetyl odor from the treatment dishes to the outside environment, the cell culture dishes were put into a custom-made container (155.6×155.6×85.7 mm) with a charcoal filter top. The cells for non-treatment controls were handled in the same manner without adding diacetyl to the medium.
Nuclear extracts of HEK293 cells were prepared according to a protocol described previously (Andrews and Faller, 1991), with minor modifications. In brief, HEK293 cells were washed twice with cold phosphate-buffered saline (PBS) and lysed with hypotonic buffer (10 mM HEPES-KOH [pH 7.9], 1.5 mM MgCl2, 10 mM KCl, protease inhibitor cocktail [Roche], 1 mM DTT, 1 mM TSA). Following a brief centrifugation, the pellet was resuspended in hypertonic buffer (20 mM HEPES-KOH [pH 7.9], 25% glycerol, 420 mM NaCl 1.5 mM MgCl2, 0.2 mM EDTA, protease inhibitor cocktail (04693159001, Roche, Indianapolis, Ind.), 1 mM DTT, 1 mM TSA). The supernatant was recovered as nuclear extract.
(§3) Proteins in the nuclear extracts (60 μg protein) were separated by SDS-PAGE gels (456-1043, Bio-Rad, Hercules, Calif.), transferred onto PVDF membranes (162-0174, Bio-Rad), and incubated with anti-histone antibodies: acetylated H3K9 (1/2000: ab4441, abeam, Cambridge, Mass.), acetylated H3K14 (1/5000: 06-911, EMD Millipore, Billerica, Mass.), acetylated H4K5 (1/2000: 07-327, EMD Millipore). Bound antibody was detected by horseradish peroxidase-conjugated anti-rabbit secondary antibody (1/20000: 1705046, Bio-Rad) and developed using Clarity™ Western ECL Substrate (1705060, Bio-Rad). Signals were detected and captured by ImageQuant™ LAS 4000 mini (GE healthcare, Pittsburgh, Pa.), and band intensities were quantified with ImageJ software. H3K9 acetylation intensity in individual lanes was reported relative to the normalized Mock treatment (Mock H3K9ace/Mock PCNA), and calculated using this formula: Relative H3K9ace intensity for each timepoint=(Diacetyl H3K9ace/diacetyl PCNA)/(Mock H3K9ace/Mock PCNA).

[4] = test system: H3K14 acetylation in HEK293 cells; test: Western blot of histone acetylation in HEK293 nuclear extracts: H3K14; assay type: cell-based, human
Description: as §1
as §2, with “The cells for non-treatment controls were handled in the same manner without adding diacetyl to the medium.” left out
as §3

[5] = test system: Gr63a; test: Whole mount RNA in situ of adult Drosophila antenna Gr63a; assay type: in vivo; conditions: 5 days; odor 1 1% on filter paper, sodium butyrate 10 mM fed; vs untreated or mock
Description: For five days, Drosophila were exposed to 1% diacetyl (odor 1) on filter paper; fed known HDAC inhibitor sodium butyrate (Na-but; 10 mM); or fed known HDAC inhibitor valproic acid (10 mM).

T1 sequence (Q13547 whole entry): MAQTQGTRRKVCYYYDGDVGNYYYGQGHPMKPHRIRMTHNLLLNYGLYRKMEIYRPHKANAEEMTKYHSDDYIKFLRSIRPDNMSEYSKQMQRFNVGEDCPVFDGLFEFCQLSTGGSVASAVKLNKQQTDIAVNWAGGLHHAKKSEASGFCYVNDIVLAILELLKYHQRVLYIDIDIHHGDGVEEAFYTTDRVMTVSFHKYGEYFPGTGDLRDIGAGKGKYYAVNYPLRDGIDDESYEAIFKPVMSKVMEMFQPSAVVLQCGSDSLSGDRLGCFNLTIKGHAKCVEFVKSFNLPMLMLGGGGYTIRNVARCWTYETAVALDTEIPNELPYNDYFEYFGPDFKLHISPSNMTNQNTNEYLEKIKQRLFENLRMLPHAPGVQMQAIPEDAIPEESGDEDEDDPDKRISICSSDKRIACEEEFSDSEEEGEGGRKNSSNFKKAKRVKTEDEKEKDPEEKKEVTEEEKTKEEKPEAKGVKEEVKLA
T2 sequence (Q92769 whole entry): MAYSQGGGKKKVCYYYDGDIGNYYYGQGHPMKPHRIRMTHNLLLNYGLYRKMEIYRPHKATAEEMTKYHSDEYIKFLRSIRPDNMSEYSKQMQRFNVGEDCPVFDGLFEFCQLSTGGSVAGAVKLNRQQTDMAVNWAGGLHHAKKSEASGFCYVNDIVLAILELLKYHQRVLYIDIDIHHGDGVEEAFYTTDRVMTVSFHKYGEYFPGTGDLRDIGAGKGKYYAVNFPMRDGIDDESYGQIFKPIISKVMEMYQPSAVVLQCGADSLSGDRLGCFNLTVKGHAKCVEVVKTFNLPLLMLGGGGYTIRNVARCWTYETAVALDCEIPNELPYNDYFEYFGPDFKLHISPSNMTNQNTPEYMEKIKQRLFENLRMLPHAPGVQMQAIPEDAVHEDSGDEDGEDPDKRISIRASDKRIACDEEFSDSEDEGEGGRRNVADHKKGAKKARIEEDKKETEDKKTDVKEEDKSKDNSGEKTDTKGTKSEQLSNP

For `CC(=O)C(C)=O` [diacetyl, 2,3-Butanedione], the “inhibition of human HDAC activity (human HDAC1 kit)” value ([1]; compared with sodium butyrate, FIG. 1C) was “effective HDAC inhibitor and comparable to sodium butyrate”, the IC50 ([1]; purified human HDAC1, n=4-5) was 7.2 mM and the IC50 [2] was 11.2 mM. The H3K9 acetylation level ([3]; 100 μM, 120 hrs) was “significantly higher levels”, the H3K9 acetylation level ([3]; 100 μM, prolonged exposure 3-5 days, onset) was “increased only after 96 hrs” and the H3K9 acetylation level ([3]; 1 mM, 2 or 6 hours) was “did not alter”. The H3K9 acetylation level ([3]; 10 mM, 2 hours, vs mock) was “significantly increased”, the H3K9 acetylation level ([3]; 10 mM, 6 hours) was “further increased” and the “level of acetyl H3K9 (H3K9Ace)” value ([3]; HEK cells, 0 μM, 1 μM and 10 μM, FIG. 1D) was “increased with increasing concentrations”. The H3K14 acetylation level ([4]; 1 mM, 2 or 6 hours) was “did not alter”, the H3K14 acetylation level ([4]; 10 mM, 2 hours) was “not affected” and the H3K14 acetylation level ([4]; 10 mM, 6 hours) was “unaffected”. The “Gr63a expression in antenna (RNA in situ)” value [5] was “over-expression”.
